In the supplement of paper PMC10307832:

Key:
Assay in all cases: relative viability (nuclei count vs DMSO), 5 days (fraction); higher = more cells survive
[1] = compound: C1=CC=C2C(=C1)C=CC(=C2SSC3=C(C=CC4=CC=CC=C43)O)O [IPA-3] + CS(=O)(=O)CCNCc1ccc(-c2ccc3ncnc(Nc4ccc(OCc5cccc(F)c5)c(Cl)c4)c3c2)o1 [Lapatinib] (partner 2 µM)
In short: (§1)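 The day after seeding in 1536-well plates, lung cancer cell lines were treated by pin tool with a single drug, or with a fixed anchor-drug dose together with five library-drug doses (not always all listed) in √10 steps. After 5 days, a combined fix-and-stain solution (final 0.05% Triton X-100, 1% formaldehyde, 1 ug/ml Hoechst) was added. Nuclei counted on 4× images gave relative viability as treated counts over vehicle counts, reported as the median of duplicate plates.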

[2] = compound: Cc1ccc(-n2nc(C(C)(C)C)cc2NC(=O)Nc2ccc(OCCN3CCOCC3)c3ccccc23)cc1 [Doramapimod] + CS(=O)(=O)CCNCc1ccc(-c2ccc3ncnc(Nc4ccc(OCc5cccc(F)c5)c(Cl)c4)c3c2)o1 [Lapatinib] (partner 2 µM)
In short: as §1

[3] = compound: Cc1ccc(-n2nc(C(C)(C)C)cc2NC(=O)Nc2ccc(OCCN3CCOCC3)c3ccccc23)cc1 [Doramapimod] + Cc1nc(Nc2ncc(C(=O)Nc3c(C)cccc3Cl)s2)cc(N2CCN(CCO)CC2)n1 [Dasatinib] (partner 0.075 µM)
In short: as §1

[4] = compound: Cc1ccc(-n2nc(C(C)(C)C)cc2NC(=O)Nc2ccc(OCCN3CCOCC3)c3ccccc23)cc1 [Doramapimod] + CC(=O)Nc1cccc(-n2c(=O)n(C3CC3)c(=O)c3c(Nc4ccc(I)cc4F)n(C)c(=O)c(C)c32)c1 [Trametinib] (partner 0.02 µM)
In short: as §1

Cell Line | relative viability ([1]; first compound 0.2 µM) | relative viability ([1]; first compound 0.6325 µM) | relative viability ([1]; first compound 2 µM) | relative viability ([1]; first compound 6.325 µM) | relative viability ([1]; first compound 20 µM) | relative viability ([2]; first compound 0.02 µM) | relative viability ([2]; first compound 0.06325 µM) | relative viability ([2]; first compound 0.2 µM) | relative viability ([2]; first compound 0.6325 µM) | relative viability ([2]; first compound 2 µM) | relative viability ([3]; first compound 0.02 µM) | relative viability ([3]; first compound 0.06325 µM) | relative viability ([3]; first compound 0.2 µM) | relative viability ([3]; first compound 0.6325 µM) | relative viability ([3]; first compound 2 µM) | relative viability ([4]; first compound 0.02 µM) | relative viability ([4]; first compound 0.06325 µM) | relative viability ([4]; first compound 0.2 µM) | relative viability ([4]; first compound 0.6325 µM) | relative viability ([4]; first compound 2 µM)
NCI-H1563 | 0.968 | 0.657 | 0.871 | 1.01 | 0.907 | 0.935 | 0.923 | 1.04 | 0.681 | 0.907 | 0.437 | 0.478 | 0.44 | 0.82 | 0.421 | – | – | – | – | –
NCI-H596 | 1.09 | 1.09 | 1.13 | 1.03 | 1.35 | 1.03 | 1.15 | 1.14 | 1.33 | 1.07 | 0.524 | 0.643 | 0.538 | 0.738 | 0.52 | 0.802 | 0.845 | 0.915 | 0.852 | 0.806
NCI-H2087 | 0.832 | 0.987 | 0.982 | 1.06 | 0.811 | 1.06 | 1.11 | 1.02 | 0.869 | 0.961 | 0.937 | 1.07 | 0.809 | 0.893 | 0.837 | 0.235 | 0.163 | 0.198 | 0.197 | 0.193
NCI-H2342 | – | – | – | – | – | – | – | – | – | – | 0.277 | 0.309 | 0.319 | 0.333 | 0.278 | 0.838 | 0.844 | 0.754 | 0.817 | 0.847
HCC-44 | 0.995 | 1.02 | 1.05 | 0.883 | 1.03 | 1.1 | 1.05 | 1.07 | 0.837 | 0.963 | – | – | – | – | – | 1.08 | 1.2 | 1.11 | 1.18 | 1.06
NCI-H441 | – | – | – | – | – | – | – | – | – | – | 0.413 | 0.506 | 0.544 | – | 0.425 | 0.511 | 0.524 | 0.457 | 0.568 | 0.366
NCI-H1299 | 0.966 | 0.936 | 0.944 | 0.894 | 0.91 | 0.991 | 0.952 | 0.956 | 0.972 | 0.925 | – | – | – | – | – | – | – | – | – | –
ChaGo-K-1 | – | – | – | – | – | – | – | – | – | – | 0.51 | 0.583 | 0.526 | 0.566 | 0.586 | 0.753 | 0.811 | 0.851 | 0.844 | 0.725
SW 900 | – | – | – | – | – | – | – | – | – | – | 0.654 | 0.548 | 0.714 | 0.813 | 0.553 | 0.761 | 0.875 | 0.974 | 0.749 | 0.769
EBC-1 | 0.191 | 0.223 | 0.199 | 0.217 | 0.25 | 0.255 | 0.198 | 0.17 | 0.209 | 0.197 | – | – | – | – | – | – | – | – | – | –
IA-LM | 1.07 | 0.8 | 0.755 | 0.578 | 0.725 | 0.897 | – | 0.841 | 0.763 | 0.669 | – | – | – | – | – | – | – | – | – | –
ABC-1 | 1.1 | 1.06 | 1.23 | 1.37 | 1.29 | 1.03 | 1.15 | 1.17 | 1.54 | 1.35 | 0.572 | 0.581 | 0.539 | 0.534 | 0.498 | – | – | – | – | –
NCI-H1703 | 1.17 | 1.05 | 0.861 | 0.961 | 1.35 | 1.11 | 0.983 | 0.949 | 0.987 | 0.716 | – | – | – | – | – | – | – | – | – | –
